In data set [1] the target is T1, Cholesteryl ester transfer protein (Homo sapiens) (UniProt P11597).
T1 sequence (whole entry): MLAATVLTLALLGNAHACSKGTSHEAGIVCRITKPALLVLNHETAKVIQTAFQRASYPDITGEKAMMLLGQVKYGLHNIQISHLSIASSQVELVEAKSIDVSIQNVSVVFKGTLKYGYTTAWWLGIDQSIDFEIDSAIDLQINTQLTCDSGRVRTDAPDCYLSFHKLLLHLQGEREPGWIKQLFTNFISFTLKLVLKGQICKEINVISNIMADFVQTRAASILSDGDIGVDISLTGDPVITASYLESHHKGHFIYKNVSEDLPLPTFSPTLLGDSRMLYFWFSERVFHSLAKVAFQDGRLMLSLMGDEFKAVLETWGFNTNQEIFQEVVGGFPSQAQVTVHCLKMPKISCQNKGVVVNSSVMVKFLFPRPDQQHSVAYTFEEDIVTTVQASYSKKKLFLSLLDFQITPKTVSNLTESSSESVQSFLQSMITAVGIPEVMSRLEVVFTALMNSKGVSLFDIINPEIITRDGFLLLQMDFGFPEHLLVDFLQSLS
Briefly: Inhibition of human plasma derived CETP relative to control. Details: concentration or dose not given beside the values; call rule not given here. The settings on record: concentration not given here.

The target of data set [2] is T2, Cholesteryl ester transfer protein (Homo sapiens, UniProt P11597).
T2 sequence (P11597 whole entry): T1 sequence (whole entry)
Briefly: Inhibition of human plasma derived CETP. It counts as cell-free.

Data set [3] deals with Cytochrome P450 2D6 (Homo sapiens, UniProt P10635). In words: Inhibition of CYP2D6 from human liver microsomes. The format is ADME. On the technique in general: Microsomes from liver hold many membrane-bound enzymes, among them those of drug oxidation.
Chain of Cytochrome P450 2D6 (P10635 whole entry): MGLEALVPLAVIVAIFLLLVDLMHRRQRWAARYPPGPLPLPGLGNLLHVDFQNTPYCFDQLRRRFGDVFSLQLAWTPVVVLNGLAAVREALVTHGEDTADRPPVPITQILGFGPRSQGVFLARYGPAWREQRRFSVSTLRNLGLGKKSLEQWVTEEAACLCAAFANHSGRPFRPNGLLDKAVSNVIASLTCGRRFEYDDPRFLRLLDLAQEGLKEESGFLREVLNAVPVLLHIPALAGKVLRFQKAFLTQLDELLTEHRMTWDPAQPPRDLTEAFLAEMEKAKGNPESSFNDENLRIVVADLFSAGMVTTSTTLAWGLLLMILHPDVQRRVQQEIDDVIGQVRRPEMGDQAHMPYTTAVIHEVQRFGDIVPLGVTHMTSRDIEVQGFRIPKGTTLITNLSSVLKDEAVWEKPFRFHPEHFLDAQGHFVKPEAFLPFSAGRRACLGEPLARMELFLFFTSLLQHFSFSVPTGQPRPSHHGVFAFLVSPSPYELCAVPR
Data set [4] is described as follows: Cmax in Sprague-Dawley rat at 10 mg/kg, po. The format is ADME, organism-based. Further details: dose 10 mg/kg, route oral. The settings on record: in vivo.
Data set [5] can be described thus: Tmax in Sprague-Dawley rat at 10 mg/kg, po. The format is ADME, organism-based. Details: dose 10 mg/kg, route oral. To be noted: in vivo.
The nature of data set [6]: Half life in Sprague-Dawley rat at 10 mg/kg, po. Details: dose 10 mg/kg, route oral. It counts as ADME, organism-based. To be noted: in vivo.
The nature of data set [7]: AUC in Sprague-Dawley rat at 10 mg/kg, po. Details: dose 10 mg/kg, route oral. To be noted: plasma. It counts as ADME, organism-based.
Data set [8] can be described thus: Oral bioavailability in Sprague-Dawley rat at 10 mg/kg. The format is ADME, organism-based. To be noted: in vivo.
Data set [9] can be described thus: Plasma clearance in Sprague-Dawley rat at 2 mg/kg, iv. It counts as ADME, organism-based. Further details: dose 2 mg/kg, route intravenous.
Data set [10] is described as follows: Volume of distribution at steady state in Sprague-Dawley rat at 2 mg/kg, iv. The format is ADME, organism-based. Further details: dose 2 mg/kg, route intravenous. The settings on record: in vivo, read-out: Vdss.
Data set [11] is described as follows: Cmax in Sprague-Dawley rat at 2 mg/kg, iv. The format is ADME, organism-based. Details: dose 2 mg/kg, route intravenous. To be noted: in vivo.
Data set [12] in a line: Half life in Sprague-Dawley rat at 2 mg/kg, iv. Details: dose 2 mg/kg, route intravenous. It counts as ADME, organism-based. The settings on record: in vivo.
Data set [13] in a line: AUC in Sprague-Dawley rat at 2 mg/kg, iv. The settings on record: plasma. Details: dose 2 mg/kg, route intravenous. The format is ADME, organism-based.
Data set [14] can be described thus: Permeability across human Caco-2 cell. To be noted: read-out: permeability. The format is ADME, cell-based. (Passage across Caco-2 layers is used to estimate intestinal permeability.)
A short description of data set [15]: Metabolic stability in human liver microsomes assessed as half life. It counts as ADME, Microsome.
For data set [16], the target named is Cytochrome P450 2C9 (Homo sapiens, UniProt P11712). In words: Inhibition of CYP2C9 from human liver microsomes. The format is ADME.
Chain of Cytochrome P450 2C9 (P11712 whole entry): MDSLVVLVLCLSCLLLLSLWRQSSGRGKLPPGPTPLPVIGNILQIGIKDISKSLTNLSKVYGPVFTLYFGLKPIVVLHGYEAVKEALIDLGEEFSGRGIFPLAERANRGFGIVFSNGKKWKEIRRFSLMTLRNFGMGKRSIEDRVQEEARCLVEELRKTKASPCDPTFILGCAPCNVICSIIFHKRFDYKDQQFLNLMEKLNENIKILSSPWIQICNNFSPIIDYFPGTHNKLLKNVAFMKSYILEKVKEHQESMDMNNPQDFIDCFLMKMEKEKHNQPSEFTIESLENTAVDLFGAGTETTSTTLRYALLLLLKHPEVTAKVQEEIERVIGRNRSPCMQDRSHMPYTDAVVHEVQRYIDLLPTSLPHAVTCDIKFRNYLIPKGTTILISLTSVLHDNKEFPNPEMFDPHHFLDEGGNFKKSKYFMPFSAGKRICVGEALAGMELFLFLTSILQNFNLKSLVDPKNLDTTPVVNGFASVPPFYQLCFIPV
The target of data set [17] is T3, Cytochrome P450 2A6 (Homo sapiens, UniProt P11509).
T3 sequence (P11509 whole entry): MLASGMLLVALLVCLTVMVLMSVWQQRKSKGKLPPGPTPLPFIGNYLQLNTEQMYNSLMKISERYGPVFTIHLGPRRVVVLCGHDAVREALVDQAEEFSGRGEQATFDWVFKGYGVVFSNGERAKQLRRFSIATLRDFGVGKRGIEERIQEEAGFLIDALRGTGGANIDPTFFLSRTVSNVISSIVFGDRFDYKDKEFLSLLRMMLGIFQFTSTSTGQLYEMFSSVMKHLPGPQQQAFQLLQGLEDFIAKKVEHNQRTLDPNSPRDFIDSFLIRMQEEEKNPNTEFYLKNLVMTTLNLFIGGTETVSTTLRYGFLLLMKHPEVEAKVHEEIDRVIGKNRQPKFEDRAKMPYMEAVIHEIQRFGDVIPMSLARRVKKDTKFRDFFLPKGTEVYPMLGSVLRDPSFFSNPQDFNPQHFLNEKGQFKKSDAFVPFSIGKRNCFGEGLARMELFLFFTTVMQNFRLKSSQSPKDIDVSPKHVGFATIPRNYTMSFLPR
Briefly: Inhibition of CYP2A6 from human liver microsomes. The format is ADME.

For data set [18], the target named is Cytochrome P450 2C19 (Homo sapiens, UniProt P33261). Briefly: Inhibition of CYP2C19 from human liver microsomes. The format is ADME.
Chain of Cytochrome P450 2C19 (P33261 whole entry): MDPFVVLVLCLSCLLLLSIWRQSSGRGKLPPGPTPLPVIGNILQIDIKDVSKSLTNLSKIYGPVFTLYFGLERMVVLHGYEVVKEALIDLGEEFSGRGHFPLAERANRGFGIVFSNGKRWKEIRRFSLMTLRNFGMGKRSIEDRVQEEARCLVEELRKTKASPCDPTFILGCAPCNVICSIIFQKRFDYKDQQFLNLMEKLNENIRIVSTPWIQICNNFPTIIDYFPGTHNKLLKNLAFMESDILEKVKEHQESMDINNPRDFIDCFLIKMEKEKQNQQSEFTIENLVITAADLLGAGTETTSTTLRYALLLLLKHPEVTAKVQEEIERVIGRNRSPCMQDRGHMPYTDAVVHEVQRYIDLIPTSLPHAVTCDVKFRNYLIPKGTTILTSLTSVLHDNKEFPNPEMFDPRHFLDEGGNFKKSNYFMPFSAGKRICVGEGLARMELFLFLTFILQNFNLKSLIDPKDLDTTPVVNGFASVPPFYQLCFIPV
The target in data set [19] is Cytochrome P450 2E1 (Homo sapiens, UniProt P05181). Briefly: Inhibition of CYP2E1 from human liver microsomes. It counts as ADME.
Chain of Cytochrome P450 2E1 (P05181 whole entry): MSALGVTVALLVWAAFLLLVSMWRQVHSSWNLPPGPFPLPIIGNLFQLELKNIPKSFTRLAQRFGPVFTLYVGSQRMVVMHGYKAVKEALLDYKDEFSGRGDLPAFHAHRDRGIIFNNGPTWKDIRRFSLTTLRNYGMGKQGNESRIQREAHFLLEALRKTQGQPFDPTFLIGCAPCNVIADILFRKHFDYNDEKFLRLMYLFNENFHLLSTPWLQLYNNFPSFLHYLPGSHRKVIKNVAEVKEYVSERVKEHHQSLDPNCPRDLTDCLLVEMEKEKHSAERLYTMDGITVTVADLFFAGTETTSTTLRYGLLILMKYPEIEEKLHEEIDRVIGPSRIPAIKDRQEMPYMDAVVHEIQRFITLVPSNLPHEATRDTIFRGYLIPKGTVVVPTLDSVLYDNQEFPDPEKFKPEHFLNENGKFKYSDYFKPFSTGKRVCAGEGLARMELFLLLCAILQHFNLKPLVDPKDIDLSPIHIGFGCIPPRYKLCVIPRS
Data set [20] deals with T4, Cytochrome P450 1A2 (Homo sapiens, UniProt P05177).
T4 sequence (P05177 whole entry): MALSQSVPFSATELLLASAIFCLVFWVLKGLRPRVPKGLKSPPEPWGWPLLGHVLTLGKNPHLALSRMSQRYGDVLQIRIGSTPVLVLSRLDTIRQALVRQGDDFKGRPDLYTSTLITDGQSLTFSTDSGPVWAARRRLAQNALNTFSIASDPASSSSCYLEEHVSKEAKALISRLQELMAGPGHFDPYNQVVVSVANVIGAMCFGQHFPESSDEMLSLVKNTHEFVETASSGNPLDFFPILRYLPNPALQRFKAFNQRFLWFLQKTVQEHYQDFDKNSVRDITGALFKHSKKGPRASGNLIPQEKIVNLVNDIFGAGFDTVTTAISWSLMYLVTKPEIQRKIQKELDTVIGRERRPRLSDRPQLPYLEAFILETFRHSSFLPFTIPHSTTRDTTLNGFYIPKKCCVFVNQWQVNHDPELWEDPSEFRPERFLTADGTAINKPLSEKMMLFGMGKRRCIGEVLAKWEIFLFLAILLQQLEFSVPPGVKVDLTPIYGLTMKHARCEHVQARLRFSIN
Briefly: Inhibition of CYP1A2 from human liver microsomes. The format is ADME.

Data set [21] addresses Cytochrome P450 3A4 (Homo sapiens, UniProt P08684). Briefly: Inhibition of CYP3A4 from human liver microsomes. It counts as ADME.

Chain of Cytochrome P450 3A4 (P08684 whole entry): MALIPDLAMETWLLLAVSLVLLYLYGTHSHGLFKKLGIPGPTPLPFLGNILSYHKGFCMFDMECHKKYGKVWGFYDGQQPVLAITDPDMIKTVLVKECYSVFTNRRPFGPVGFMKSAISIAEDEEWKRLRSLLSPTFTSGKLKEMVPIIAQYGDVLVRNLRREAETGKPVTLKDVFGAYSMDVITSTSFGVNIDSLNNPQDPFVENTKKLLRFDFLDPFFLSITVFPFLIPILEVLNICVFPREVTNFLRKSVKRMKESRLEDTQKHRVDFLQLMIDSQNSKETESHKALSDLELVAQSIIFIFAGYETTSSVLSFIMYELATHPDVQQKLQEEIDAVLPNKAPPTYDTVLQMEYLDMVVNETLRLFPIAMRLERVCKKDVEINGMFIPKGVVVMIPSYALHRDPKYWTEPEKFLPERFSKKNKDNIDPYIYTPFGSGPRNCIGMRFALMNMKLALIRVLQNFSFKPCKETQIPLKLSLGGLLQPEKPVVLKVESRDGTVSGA

For `C[C@@H](O)CN1c2cccc(-c3cccc(OC(F)(F)F)c3)c2CC[C@@H]1c1cccc(OC(F)(F)F)c1`, in data set [1], the inhibition (usually the relative decrease from the control value, in per cent) came to 68%. Further, the IC50 (commonly the concentration needed to halve the response being measured) in data set [2] came to 125 nM.
Taken in the same sequence, the figures for `CC(C)c1cccc(-c2cccc3c2CCC(c2cccc(OC(F)(F)C(F)F)c2)N3CC(O)C(F)(F)F)c1` (single isomer, unassigned; diastereomer 1) were 63% and 277 nM.
Taken in the same sequence, the figures for `OC(CN1c2cccc(-c3ccc(OC(F)(F)F)cc3)c2CCC1c1cccc(OC(F)(F)C(F)F)c1)C(F)(F)F` (single isomer, unassigned; diastereomer 1) were 85% and 500 nM.
Take `CC(C)Oc1cccc(-c2cccc3c2CCC(c2cccc(OC(F)(F)C(F)F)c2)N3CC(O)C(F)(F)F)c1` (stereo not drawn): in data set [1], the inhibition is 55%. The same compound displayed an IC50 in data set [2] of 345 nM.
As to `O[C@H](CN1c2cccc(-c3cccc(OC(F)(F)F)c3)c2CC[C@@H]1c1cccc(OC(F)(F)F)c1)C(F)(F)F` [TETRAHYDROQUINOLINE B], the inhibition in [1] was found to be 62%. The IC50 in data set [2] is over 3000 nM.
For the compound `OC(CN1c2cccc(-c3cccnc3)c2CCC1c1cccc(OC(F)(F)C(F)F)c1)C(F)(F)F` (single isomer, unassigned; diastereomer 1), in [1], the inhibition was found to be 47%. This compound also came in with an IC50 in data set [2] of over 3000 nM.
Consider `OC(CN1c2cccc(-c3cccc(Cl)c3)c2CCC1c1cccc(OC(F)(F)C(F)F)c1)C(F)(F)F` (single isomer, unassigned; diastereomer 1), for which the IC50 in [2] was 64 nM.
Take `O[C@@H](CN1c2cccc(-c3cccc(OC(F)(F)F)c3)c2CC[C@@H]1c1cccc(OC(F)(F)F)c1)C(F)(F)F` [TETRAHYDROQUINOLINE A]: the Activity entry in data set [3], in data set [16], in [17], in data set [18], in data set [19] and in data set [20] was “Not Active” in each case. Further, in data set [21], the Activity result is recorded as “Not Active”. Also, in [1], the inhibition stood at 85%. In data set [2], this compound returned an IC50 of 39 nM. Further, the Cmax (as a rule, the highest concentration seen after dosing) in [4] turned out to be 950 ng/mL; in data set [11] it was 31400 ng/mL. Moreover, the Tmax – broadly, the time at which the peak concentration occurs – in data set [5] turned out to be 6 h. Also, the results for the half-life in [6], in data set [12] and in data set [15] were 1680 min, 1040 min and over 128 min, respectively. The AUC (commonly the area under the concentration-time curve, a measure of exposure) in data set [7] is 31300 ng·h/mL; in data set [13], 18900 ng·h/mL. Besides, the bioavailability (usually dose-corrected exposure relative to a reference, in per cent) in data set [8] was determined as 31%. In [9], the clearance (in general, the rate of elimination divided by the concentration) was 1.8 mL/min/kg. In addition, the Vd in data set [10] stood at 0.36 L/kg. The Papp in [14] stood at 4.7 ×10⁻⁶ cm/s.
In data set [2], `OC(CN1c2cccc(-c3cccc(OC(F)(F)F)c3)c2CCC1c1cccc(OC(F)(F)C(F)F)c1)C(F)(F)F` (single isomer, unassigned; 19) had an IC50 of 33 nM.
The same measure, in the same setting: the figure for `OC(CN1c2cccc(-c3cccc(Cl)c3Cl)c2CCC1c1cccc(OC(F)(F)C(F)F)c1)C(F)(F)F` (single isomer, unassigned; diastereomer 2) is 400 nM.
The compound `OC(CN1c2cccc(-c3cccs3)c2CCC1c1cccc(OC(F)(F)C(F)F)c1)C(F)(F)F` (single isomer, unassigned; diastereomer 1) displayed an inhibition in data set [1] of 63%. The compound also had a 50% inhibitory concentration (IC50) in data set [2] of 317 nM.
